pIC50: −log10 of the molar value.
Tests used:
hPAD4 enzyme [1] = biological target: T1, hPAD4 enzyme (Homo sapiens, UniProt Q9UM07); assay: RFMS Assay 2 (rapid-fire mass spectrum PAD4 inhibition assay, peptide substrate); type: biochemical; settings: 35 nM recombinant human PAD4, substrate TSTGGRQGSHH, room temperature for 30 minutes; read-out: human PAD4 (hPAD4) IC50, RFMS Assay 2
Description: Stock compounds were dissolved and stored in 100% DMSO. Compound solutions were prepared via serial dilution at 3-fold intervals in DMSO with top compound concentration at […] in each assay. 0.25 μl of compound solution was transferred from the compound plate to the assay plate by using an acoustic dispenser. Final assay conditions: • Total reaction volume: 25 μl • Assay buffer: […] pH 7.4, 200 mM NaCl, 2 mM CaCl2, 5 mM DTT • 35 nM recombinant human PAD4 • 500 µM TSTGGRQGSHH (SEQ ID NO: 1) • 1.2% DMSO • Stop solution: 10% formic acid
Reaction mixtures were incubated at room temperature for 30 minutes. 10 μl each of the reaction mixtures was then mixed with 40 μl of 10% formic acid in a microtiter plate. The plate was frozen at −80° C. before shipping out on dry ice for RapidFire mass spectroscopy analysis.
Thawed samples were loaded onto the Rapid Fire 300 system (Agilent) wherein they were first sipped for 250 ms and then loaded onto a Agilent “C” (C18) cartridge using a mobile phase of water containing 0.09% formic acid/0.01% trifluoroacetic acid for 3000 ms desalting flowing at a rate of 1.5 ml/min. Once the samples were loaded and washed, a mobile phase of acetonitrile containing 0.09% formic acid/0.01% trifluoroacetic acid was used to elute the samples directly onto a Sciex API4000 triple quadrupole mass spectrometer for 3000 ms at a flow rate of 1.25 ml/min.
MRM transitions for substrate and product were monitored in positive ESI mode at m/z=562.3/969.7 and m/z=562.8/541.3 respectively. The dwell time for each transition was set at 100 ms, and the ESI voltage was used at 5500 with a source temperature of 650° C. Extracted ion peaks for each transition were integrated using the Rapid Fire Integrator software.

hPAD4 enzyme [2] = biological target: T1, hPAD4 enzyme; assay: RFMS Assay 1 (rapid-fire mass spectrum PAD4 inhibition assay, BAEE substrate); type: biochemical; settings: 5 nM hPAD4 enzyme, 250 μM BAEE, 30 mins compound and enzyme preincubation at 37° C., 90 min enzyme/substrate reaction
Method in brief: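 Human PAD4 (5 nM) preincubated 30 min at 37 °C with compound (top 50 μM, 0.5% DMSO), then 250 μM BAEE for 90 min at 37 °C in pH 7.5 HEPES with 50 μM calcium, 5 μM TPEN, 1 mM DTT. Product derivatized with phenyl glyoxal; citrulline product quantified by RapidFire MS/MS MRM, normalized to internal standard.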

T1 sequence (Q9UM07 whole entry): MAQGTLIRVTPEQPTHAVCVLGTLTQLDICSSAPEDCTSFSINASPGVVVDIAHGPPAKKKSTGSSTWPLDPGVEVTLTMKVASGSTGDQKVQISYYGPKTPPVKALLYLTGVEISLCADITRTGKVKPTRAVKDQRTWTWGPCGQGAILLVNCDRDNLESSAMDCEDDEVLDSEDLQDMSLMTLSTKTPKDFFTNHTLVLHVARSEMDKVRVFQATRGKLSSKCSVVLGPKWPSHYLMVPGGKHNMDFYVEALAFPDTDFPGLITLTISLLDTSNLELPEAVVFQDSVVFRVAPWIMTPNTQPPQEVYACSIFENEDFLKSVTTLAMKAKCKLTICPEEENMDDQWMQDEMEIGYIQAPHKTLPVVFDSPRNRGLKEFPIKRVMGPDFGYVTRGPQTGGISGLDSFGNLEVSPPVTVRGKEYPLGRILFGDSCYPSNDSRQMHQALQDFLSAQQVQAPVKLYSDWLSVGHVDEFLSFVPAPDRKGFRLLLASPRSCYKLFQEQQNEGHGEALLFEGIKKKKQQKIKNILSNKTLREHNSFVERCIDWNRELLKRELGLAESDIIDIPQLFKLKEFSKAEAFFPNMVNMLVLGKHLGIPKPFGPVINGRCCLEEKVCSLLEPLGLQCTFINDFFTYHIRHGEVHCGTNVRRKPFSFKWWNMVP

| pIC50 (hPAD4 enzyme [1]) | pIC50 (hPAD4 enzyme [2]) | SMILES |
| --- | --- | --- |
| ≥ 8.00 | 7.00 to 7.96 | COCC(=O)N1CCC(c2cccc3cc(-c4nc5cc6c(nc5n4C)CCN(C[C@H](N)CF)C6=O)n(CC4CC4)c23)CC1 [Example 30, (S)-7-(2-amino-3-fluoropropyl)-2-(1-(cyclopropylmethyl)-7-(1-(2-methoxyacetyl)piperidin-4-yl)-1H-indol-2-yl)-3-methyl-3,5,6,7-tetrahydro-8H-imidazo[4,5-b][1,6]naphthyridin-8-one] |
| 7.00 to 7.96 | ≥ 8.00 | Cn1c(-c2cc3cccc(OC[C@@H]4CNC(=O)O4)c3n2CC2CC2)nc2cc3c(nc21)CCN(C[C@H](N)CF)C3=O [Example 34, (S)-5-(((2-(7-((S)-2-amino-3-fluoropropyl)-3-methyl-8-oxo-5,6,7,8-tetrahydro-3H-imidazo[4,5-b][1,6]naphthyridin-2-yl)-1-(cyclopropylmethyl)-1H-indol-7-yl)oxy)methyl)oxazolidin-2-one] |
| 7.00 to 7.96 | ≥ 8.00 | Cn1c(-c2cc3cccc(OCCc4cnco4)c3n2CC2CC2)nc2cc3c(nc21)CCN(C[C@H](N)CF)C3=O [Example 41, (S)-7-(2-amino-3-fluoropropyl)-2-(1-(cyclopropylmethyl)-7-(2-(oxazol-5-yl)ethoxy)-1H-indol-2-yl)-3-methyl-3,5,6,7-tetrahydro-8H-imidazo[4,5-b][1,6]naphthyridin-8-one] |
| 7.00 to 7.96 | ≥ 8.00 | Cn1c(-c2cc3cccc(OCCn4ccnc4)c3n2CC2CC2)nc2cc3c(nc21)CCN(C[C@H](N)CF)C3=O [Example 44, (S)-2-(7-(2-(1H-imidazol-1-yl)ethoxy)-1-(cyclopropylmethyl)-1H-indol-2-yl)-7-(2-amino-3-fluoropropyl)-3-methyl-3,5,6,7-tetrahydro-8H-imidazo[4,5-b][1,6]naphthyridin-8-one] |
| 7.00 to 7.96 | 7.00 to 7.96 | Cn1c(-c2cc3cccc(OC[C@@H]4CNC(=O)C4)c3n2CC2CC2)nc2cc3c(nc21)CCN(C[C@H](N)CF)C3=O [Example 59, 7-((S)-2-amino-3-fluoropropyl)-2-(1-(cyclopropylmethyl)-7-(((S)-5-oxopyrrolidin-3-yl)methoxy)-1H-indol-2-yl)-3-methyl-3,5,6,7-tetrahydro-8H-imidazo[4,5-b][1,6]naphthyridin-8-one] |
| 6.30 to 7.00 | 7.00 to 7.96 | C[C@H](Cn1ccnc1)Oc1cccc2cc(-c3nc4cc5c(nc4n3C)CCN(C[C@H](N)CF)C5=O)n(CC3CC3)c12 [Example 62, 2-(7-(((R)-1-(1H-imidazol-1-yl)propan-2-yl)oxy)-1-(cyclopropylmethyl)-1H-indol-2-yl)-7-((S)-2-amino-3-fluoropropyl)-3-methyl-3,5,6,7-tetrahydro-8H-imidazo[4,5-b][1,6]naphthyridin-8-one] |
| 6.30 to 7.00 | 7.00 to 7.96 | Cc1cncn1CCOc1cccc2cc(-c3nc4cc5c(nc4n3C)CCN(C[C@H](N)CF)C5=O)n(CC3CC3)c12 [Example 71, (S)-7-(2-amino-3-fluoropropyl)-2-(1-(cyclopropylmethyl)-7-(2-(5-methyl-1H-imidazol-1-yl)ethoxy)-1H-indol-2-yl)-3-methyl-3,5,6,7-tetrahydro-8H-imidazo[4,5-b][1,6]naphthyridin-8-one] |
| 6.30 to 7.00 | 7.00 to 7.96 | Cc1cn(CCOc2cccc3cc(-c4nc5cc6c(nc5n4C)CCN(C[C@H](N)CF)C6=O)n(CC4CC4)c23)cn1 [Example 72, (S)-7-(2-amino-3-fluoropropyl)-2-(1-(cyclopropylmethyl)-7-(2-(4-methyl-1H-imidazol-1-yl)ethoxy)-1H-indol-2-yl)-3-methyl-3,5,6,7-tetrahydro-8H-imidazo[4,5-b][1,6]naphthyridin-8-one] |

More lines, now with the values behind:

| SMILES | pIC50 (hPAD4 enzyme [1]) | pIC50 (hPAD4 enzyme [2]) |
| --- | --- | --- |
| COc1cccc2cc(-c3nc4cc5c(nc4n3C)CCN(C[C@H]3COCCN3)C5=O)n(CC3CC3)c12 [Example 27, (S)-2-(1-(cyclopropylmethyl)-7-methoxy-1H-indol-2-yl)-3-methyl-7-(morpholin-3-ylmethyl)-3,5,6,7-tetrahydro-8H-imidazo[4,5-b][1,6]naphthyridin-8-one] | < 6.00 | 6.00 to 6.30 |
| Cn1c(-c2cc3ccc(C(C)(C)O)nc3n2CC2CC2)nc2cc3c(nc21)CCN(C[C@H](N)CF)C3=O [Example 33, (S)-7-(2-amino-3-fluoropropyl)-2-(1-(cyclopropylmethyl)-6-(2-hydroxypropan-2-yl)-1H-pyrrolo[2,3-b]pyridin-2-yl)-3-methyl-3,5,6,7-tetrahydro-8H-imidazo[4,5-b][1,6]naphthyridin-8-one] | 6.00 to 6.30 | 7.00 to 7.96 |
| Cn1c(-c2cc3cccc(OCCc4cnoc4)c3n2CC2CC2)nc2cc3c(nc21)CCN(C[C@H](N)CF)C3=O [Example 39, (S)-7-(2-amino-3-fluoropropyl)-2-(1-(cyclopropylmethyl)-7-(2-(isoxazol-4-yl)ethoxy)-1H-indol-2-yl)-3-methyl-3,5,6,7-tetrahydro-8H-imidazo[4,5-b][1,6]naphthyridin-8-one] | 7.00 to 7.96 | ≥ 8.00 |
| Cn1c(-c2cc3cccc(OCCn4cncc4F)c3n2CC2CC2)nc2cc3c(nc21)CCN(C[C@H](N)CF)C3=O [Example 42, (S)-7-(2-amino-3-fluoropropyl)-2-(1-(cyclopropylmethyl)-7-(2-(5-fluoro-1H-imidazol-1-yl)ethoxy)-1H-indol-2-yl)-3-methyl-3,5,6,7-tetrahydro-8H-imidazo[4,5-b][1,6]naphthyridin-8-one] | 6.30 to 7.00 | 7.00 to 7.96 |
| Cn1c(-c2cc3cccc(OCCc4ccn[nH]4)c3n2CC2CC2)nc2cc3c(nc21)CCN(C[C@H](N)CF)C3=O [Example 43, (S)-2-(7-(2-(1H-pyrazol-5-yl)ethoxy)-1-(cyclopropylmethyl)-1H-indol-2-yl)-7-(2-amino-3-fluoropropyl)-3-methyl-3,5,6,7-tetrahydro-8H-imidazo[4,5-b][1,6]naphthyridin-8-one] | 7.00 to 7.96 | ≥ 8.00 |
| Cn1c(-c2cc3cccc(OCCc4ccon4)c3n2CC2CC2)nc2cc3c(nc21)CCN(C[C@H](N)CF)C3=O [Example 46, (S)-7-(2-amino-3-fluoropropyl)-2-(1-(cyclopropylmethyl)-7-(2-(isoxazol-3-yl)ethoxy)-1H-indol-2-yl)-3-methyl-3,5,6,7-tetrahydro-8H-imidazo[4,5-b][1,6]naphthyridin-8-one] | 7.00 to 7.96 | ≥ 8.00 |
| Cn1c(-c2cc3cccc(OCCc4cnn[nH]4)c3n2CC2CC2)nc2cc3c(nc21)CCN(C[C@H](N)CF)C3=O [Example 47, (S)-2-(7-(2-(1H-1,2,3-triazol-5-yl)ethoxy)-1-(cyclopropylmethyl)-1H-indol-2-yl)-7-(2-amino-3-fluoropropyl)-3-methyl-3,5,6,7-tetrahydro-8H-imidazo[4,5-b][1,6]naphthyridin-8-one] | 7.00 to 7.96 | ≥ 8.00 |
| Cc1ncoc1CCOc1cccc2cc(-c3nc4cc5c(nc4n3C)CCN(C[C@H](N)CF)C5=O)n(CC3CC3)c12 [Example 48, (S)-7-(2-amino-3-fluoropropyl)-2-(1-(cyclopropylmethyl)-7-(2-(4-methyloxazol-5-yl)ethoxy)-1H-indol-2-yl)-3-methyl-3,5,6,7-tetrahydro-8H-imidazo[4,5-b][1,6]naphthyridin-8-one] | 6.30 to 7.00 | 7.00 to 7.96 |
| Cc1nnc(CCOc2cccc3cc(-c4nc5cc6c(nc5n4C)CCN(C[C@H](N)CF)C6=O)n(CC4CC4)c23)o1 [Example 54, (S)-7-(2-amino-3-fluoropropyl)-2-(1-(cyclopropylmethyl)-7-(2-(5-methyl-1,3,4-oxadiazol-2-yl)ethoxy)-1H-indol-2-yl)-3-methyl-3,5,6,7-tetrahydro-8H-imidazo[4,5-b][1,6]naphthyridin-8-one] | 7.00 to 7.96 | 7.00 to 7.96 |
| Cn1c(-c2cc3cccc(OCCn4cnc(F)c4)c3n2CC2CC2)nc2cc3c(nc21)CCN(C[C@H](N)CF)C3=O [Example 70, (S)-7-(2-amino-3-fluoropropyl)-2-(1-(cyclopropylmethyl)-7-(2-(4-fluoro-1H-imidazol-1-yl)ethoxy)-1H-indol-2-yl)-3-methyl-3,5,6,7-tetrahydro-8H-imidazo[4,5-b][1,6]naphthyridin-8-one] | 7.00 to 7.96 | ≥ 8.00 |
| Cn1c(-c2cc3ccnc(OC[C@@H]4CNC(=O)C4)c3n2CC2CC2)nc2cc3c(nc21)CCN(C[C@H](N)CF)C3=O [Example 82, 7-((S)-2-amino-3-fluoropropyl)-2-(1-(cyclopropylmethyl)-7-(((S)-5-oxopyrrolidin-3-yl)methoxy)-1H-pyrrolo[2,3-c]pyridin-2-yl)-3-methyl-3,5,6,7-tetrahydro-8H-imidazo[4,5-b][1,6]naphthyridin-8-one] | 6.30 to 7.00 | 6.30 to 7.00 |

Source: patent publication US20250353848A1, “HETEROCYCLIC PAD4 INHIBITORS” (Celgene Corporation, priority 2022, published 2025)
